Assay results reported in patent publication US8808702B2, “Sulfide, sulfoxide and sulfone chalcone analogues, derivatives thereof and therapeutic uses thereof” (Temple University-of the Commonwealth System of Higher …, priority 2006, dated 2014).
Where two headings read alike, the source gives them in different places.

Columns and labels:
[1] = system: DU145 (prostate cancer); assay: Effect of compounds on tumor cell lines (assay of Latham et al.), DU145; assay type: cell-based; conditions: DU145 cells, read-out: DU 145 potency (IC50)
Method in brief: (§1)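 K562 or DU145 cells plated at 2.5×10^4 cells/well, treated 24 h later with compound in DMSO at 1 μM to 100 μM (0.1 μM to 100 μM for one compound). Activity judged by microscopic observation after 96 h; where needed, viable cells counted by trypan blue exclusion.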

[2] = system: K562 (chronic myelogenous leukaemia); assay: Effect of compounds on tumor cell lines (assay of Latham et al.), K562; assay type: cell-based; conditions: K562 cells, read-out: K 562 potency (IC50)
Method in brief: as §1

[3] = 96 hours after treatment, 1 μM to 100 μM
[4] = Table 1, examined 96 hours after treatment, 1 μM to 100 μM in DMSO
[5] = Table 4, examined 96 hours after treatment, 1 μM to 100 μM in DMSO

O=C(/C(=C\c1ccccc1OCc1ccccc1)S(=O)(=O)Cc1ccc(F)cc1)c1ccc(Cl)cc1 [Example 402]
melting point: 139 to 145 °C

COc1ccccc1/C=C(\C(=O)c1ccc(Br)cc1)S(=O)(=O)Cc1ccc(F)cc1 [Example 404]
melting point: 145 to 151 °C

Cc1ccc(/C=C(\C(=O)c2ccc(Br)cc2)S(=O)(=O)Cc2ccc(F)cc2)s1 [Example 416]
melting point: 156 to 161 °C

COc1ccc(/C=C(\C(=O)c2ccc(Br)cc2)S(=O)(=O)Cc2ccc(F)cc2)cc1 [Example 415]
melting point: 121 to 123 °C

CSc1ccc(C=C(SCc2ccc(C)cc2)C(=O)c2ccc(Cl)cc2)cc1 [Example 294]
IC50 [1, 3]: 25 to 50 µM | IC50 [2, 3]: 10 to 25 µM

COc1ccccc1C=C(SCc1ccc(Cl)cc1)C(=O)c1ccc(Cl)cc1 [Example 199]
IC50 [1, 3]: 1 to 10 µM | IC50 [2, 3]: 1 to 10 µM

O=C(C(=Cc1ccc(O)c([N+](=O)[O-])c1)Sc1ccc(Br)cc1)c1ccc(Br)cc1 [Example 43]
IC50 [1, 4]: 1 to 10 µM | IC50 [2, 4]: 1 to 10 µM

O=C(/C(=C\c1ccc(O)c([N+](=O)[O-])c1)S(=O)(=O)Cc1ccc(Br)cc1)c1c(F)c(F)c(F)c(F)c1F [Example 373]
IC50 [1, 5]: 50 to 100 µM | IC50 [2, 5]: 50 to 100 µM

Cc1ccc(CSC(=Cc2ccc(F)c(C)c2)C(=O)c2ccc(Cl)cc2)cc1 [Example 291]
IC50 [1, 3]: 25 to 50 µM | IC50 [2, 3]: 10 to 25 µM

Cc1ccc(CSC(=Cc2cc([N+](=O)[O-])ccc2F)C(=O)c2ccc(Cl)cc2)cc1 [Example 276]
IC50 [1, 3]: 1 to 10 µM | IC50 [2, 3]: 1 to 10 µM

O=C(C(=Cc1cc(Cl)c(O)c(Cl)c1)SCc1ccc(Br)cc1)c1ccc(Br)cc1 [Example 148]
IC50 [1, 3]: 10 to 25 µM | IC50 [2, 3]: 10 to 25 µM

Cc1ccc(SC(=Cc2ccc(F)cc2F)C(=O)c2ccc(Br)cc2)cc1 [Example 73]
IC50 [1, 4]: > 100 µM | IC50 [2, 4]: > 100 µM

CCN(CC)CCNC(=O)c1c(C)[nH]c(/C=C(\C(=O)c2ccc(Br)cc2)S(=O)(=O)Cc2ccc(Br)cc2)c1C [Example 370]
IC50 [1, 5]: 1 to 10 µM | IC50 [2, 5]: 1 to 10 µM

Cc1ccc(CSC(=Cc2c[nH]c3ccc(Br)cc23)C(=O)c2ccc(Cl)cc2)cc1 [Example 295]
IC50 [1, 3]: 1 to 10 µM | IC50 [2, 3]: 1 to 10 µM

COc1ccc(C=C(Sc2ccc(C)cc2)C(=O)c2ccc(Cl)cc2)cc1O [Example 79]
IC50 [1, 4]: 1 to 10 µM | IC50 [2, 4]: 1 to 10 µM

Cc1ccc(CSC(=Cc2cc(C)ccc2C)C(=O)c2ccc(Cl)cc2)cc1 [Example 273]
IC50 [1, 3]: 10 to 25 µM | IC50 [2, 3]: 10 to 25 µM

O=C(C(=Cc1ccc([N+](=O)[O-])c(O)c1)Sc1c(F)c(F)c(F)c(F)c1F)c1ccc(Br)cc1 [Example 1]
IC50 [1, 4]: 10 to 25 µM | IC50 [2, 4]: 1 to 10 µM

O=C(C(=Cc1ccc(OC(F)(F)F)cc1)Sc1ccc(Br)cc1)c1ccc(Br)cc1 [Example 51]
IC50 [1, 4]: 1 to 10 µM | IC50 [2, 4]: 1 to 10 µM

Cc1cc(C)cc(C=C(SCc2ccc(Cl)cc2)C(=O)c2ccc(Cl)cc2)c1 [Example 202]
IC50 [1, 3]: 10 to 25 µM | IC50 [2, 3]: 10 to 25 µM

Cc1ccc(SC(=Cc2ccc(Oc3ccccc3)cc2)C(=O)c2ccc(Cl)cc2)cc1 [Example 104]
IC50 [1, 4]: 10 to 25 µM | IC50 [2, 4]: 10 to 25 µM

O=C(C(=Cc1ccc([N+](=O)[O-])c(O)c1)SCc1ccc(Br)cc1)c1ccc([N+](=O)[O-])cc1 [Example 158]
IC50 [1, 3]: 1 to 10 µM | IC50 [2, 3]: 1 to 10 µM

O=C(O)c1ccc(C(=O)C(=Cc2ccc(Cl)c([N+](=O)[O-])c2)SCc2ccc(Cl)cc2Cl)cc1 [Example 300]
IC50 [1, 3]: 1 to 10 µM | IC50 [2, 3]: ≤ 1 µM

Cc1ccsc1C=C(SCc1ccc(Cl)cc1Cl)C(=O)c1ccc(Cl)cc1 [Example 119]
IC50 [1, 3]: 10 to 25 µM | IC50 [2, 3]: 50 to 100 µM

O=C(O)c1ccc(C(=O)/C(=C\c2ccc(Br)c([N+](=O)[O-])c2)SCc2ccc(Br)cc2)cc1 [Example 165]
IC50 [1, 3]: 1 to 10 µM | IC50 [2, 3]: 1 to 10 µM

COc1cc(C=C(Sc2ccc(Br)cc2)C(=O)c2ccc(Br)cc2)ccc1F [Example 39]
IC50 [1, 4]: 1 to 10 µM | IC50 [2, 4]: 1 to 10 µM

O=C(/C(=C\c1ccc(O)c([N+](=O)[O-])c1)SCc1ccc(Br)cc1)c1cc(Cl)ccc1O [Example 187]
IC50 [1, 3]: 25 to 50 µM | IC50 [2, 3]: 10 to 25 µM

O=C(C(=Cc1ccc(Br)cc1)SCc1ccc(Cl)cc1)c1ccc(Cl)cc1 [Example 215]
IC50 [1, 3]: 1 to 10 µM | IC50 [2, 3]: 1 to 10 µM

COc1cc(/C=C(/SCc2ccc(Br)cc2)C(=O)c2ccc(Br)cc2)cc([N+](=O)[O-])c1O [Example 174]
IC50 [1, 3]: 25 to 50 µM | IC50 [2, 3]: 25 to 50 µM

O=C(C(=Cc1cccc(Cl)c1Cl)SCc1ccc(Cl)cc1)c1ccc(Cl)cc1 [Example 191]
IC50 [1, 3]: 10 to 25 µM | IC50 [2, 3]: 1 to 10 µM

COc1ccc(C=C(Sc2ccc(C)cc2)C(=O)c2ccc(Br)cc2)cc1 [Example 99]
IC50 [1, 4]: 50 to 100 µM | IC50 [2, 4]: 10 to 25 µM

O=C(O)c1ccc(C(=O)/C(=C\c2ccc(F)c([N+](=O)[O-])c2)SCc2nc3ccc(Br)cc3[nH]2)cc1 [Example 352]
IC50 [1, 3]: 1 to 10 µM | IC50 [2, 3]: 1 to 10 µM

Cc1ccc(C)c(C=C(Sc2ccc(Br)cc2)C(=O)c2ccc(Cl)cc2)c1 [Example 19]
IC50 [1, 4]: 10 to 25 µM | IC50 [2, 4]: 10 to 25 µM

COc1cc(OC)c(C=C(SCc2ccc(Cl)cc2)C(=O)c2ccc(Br)cc2)c(OC)c1 [Example 193]
IC50 [1, 3]: 1 to 10 µM | IC50 [2, 3]: 10 to 25 µM

COc1ccc(C=C(SCc2ccc(Cl)cc2)C(=O)c2ccc(Br)cc2)cc1O [Example 203]
IC50 [1, 3]: 1 to 10 µM | IC50 [2, 3]: 1 to 10 µM

O=C(O)c1cc(C=C(Sc2ccc(Br)cc2)C(=O)c2c(F)c(F)c(F)c(F)c2F)ccc1O [Example 28]
IC50 [1, 4]: 25 to 50 µM | IC50 [2, 4]: 25 to 50 µM

O=C(O)c1ccc(C(=O)C(=Cc2ccc(F)c([N+](=O)[O-])c2)SCc2ccc(Cl)cc2Cl)cc1 [Example 301]
IC50 [1, 3]: 1 to 10 µM | IC50 [2, 3]: ≤ 1 µM

Cc1ccc(SC(=Cc2ccc(C)s2)C(=O)c2ccc(Br)cc2)cc1 [Example 109]
IC50 [1, 4]: > 100 µM | IC50 [2, 4]: 50 to 100 µM

O=C(C(=Cc1ccc([N+](=O)[O-])c(O)c1)Sc1ccc(Br)cc1)c1c(F)c(F)c(F)c(F)c1F [Example 30]
IC50 [1, 4]: 1 to 10 µM | IC50 [2, 4]: 1 to 10 µM

O=C(O)c1ccc(C(=O)/C(=C\c2ccc(F)c([N+](=O)[O-])c2)SCc2ccc(C(F)(F)F)cc2)cc1 [Example 351]
IC50 [1, 3]: 1 to 10 µM | IC50 [2, 3]: ≤ 1 µM

COc1ccc(OC)c(C=C(SCc2ccc(Cl)c(Cl)c2)C(=O)c2ccc(Cl)cc2)c1 [Example 138]
IC50 [1, 3]: 10 to 25 µM | IC50 [2, 3]: 10 to 25 µM

CN(C)c1ccc(C=C(SCc2ccc(Cl)cc2)C(=O)c2ccc([N+](=O)[O-])cc2)cc1 [Example 211]
IC50 [1, 3]: > 100 µM | IC50 [2, 3]: 50 to 100 µM

CN(C)c1ccc(C=C(SCc2ccc(Cl)c(Cl)c2)C(=O)c2ccc(Cl)cc2)cc1 [Example 142]
IC50 [1, 3]: 50 to 100 µM | IC50 [2, 3]: 50 to 100 µM

Cc1ccc(SC(=Cc2ccc(Cl)cc2Cl)C(=O)c2ccc(Cl)cc2)cc1 [Example 71]
IC50 [1, 4]: 10 to 25 µM | IC50 [2, 4]: 25 to 50 µM

O=C(C(=Cc1ccc(Cl)cc1)SCc1ccc(Cl)cc1)c1ccccc1Cl [Example 217]
IC50 [1, 3]: 50 to 100 µM | IC50 [2, 3]: 1 to 10 µM

O=C(O)c1ccc(C(=O)C(=Cc2ccc(O)c([N+](=O)[O-])c2)SCc2ccc(F)cc2)cc1 [Example 262]
IC50 [1, 3]: > 100 µM | IC50 [2, 3]: 50 to 100 µM

O=C(C(=Cc1ccc([N+](=O)[O-])c(O)c1)SCc1ccc(Br)cc1)c1ccc([N+](=O)[O-])c(Cl)c1 [Example 154]
IC50 [1, 3]: 1 to 10 µM | IC50 [2, 3]: 1 to 10 µM

O=C(C(=Cc1ccc(O)c([N+](=O)[O-])c1)Sc1ccccc1Br)c1ccc(Cl)cc1 [Example 11]
IC50 [1, 4]: 25 to 50 µM | IC50 [2, 4]: 10 to 25 µM

Cc1ccc(SC(=Cc2ccc(Cl)cc2)C(=O)c2ccc(Br)cc2)cc1 [Example 90]
IC50 [1, 4]: 10 to 25 µM | IC50 [2, 4]: 1 to 10 µM

COc1ccc(SC(=Cc2ccc(C)s2)C(=O)c2ccc(Cl)cc2)cc1 [Example 64]
IC50 [1, 4]: 50 to 100 µM | IC50 [2, 4]: 50 to 100 µM

O=C(C(=Cc1ccc(F)cc1C(F)(F)F)SCc1ccc(F)cc1)c1ccc(Br)cc1 [Example 260]
IC50 [1, 3]: 10 to 25 µM | IC50 [2, 3]: 10 to 25 µM

O=C(/C(=C\c1ccc(O)c([N+](=O)[O-])c1)SCc1ccc(Br)cc1)c1c(F)c(F)c(F)c(F)c1F [Example 175]
IC50 [1, 3]: 10 to 25 µM | IC50 [2, 3]: 10 to 25 µM

O=C(O)c1ccc(C(=O)C(=Cc2ccc(Cl)c([N+](=O)[O-])c2)SCc2ccccc2F)cc1 [Example 304]
IC50 [1, 3]: 1 to 10 µM | IC50 [2, 3]: ≤ 1 µM

COc1cc(OC)c(C=C(SCc2ccc(Cl)c(Cl)c2)C(=O)c2ccc(Cl)cc2)c(OC)c1 [Example 137]
IC50 [1, 3]: 10 to 25 µM | IC50 [2, 3]: 10 to 25 µM

Cc1ccc(SC(=Cc2ccc(F)c([N+](=O)[O-])c2)C(=O)c2ccc(Br)cc2)cc1 [Example 113]
IC50 [1, 4]: 1 to 10 µM | IC50 [2, 4]: 1 to 10 µM

Cc1ccc(C=C(Sc2ccc(F)cc2)C(=O)c2ccc(Cl)cc2)s1 [Example 60]
IC50 [1, 4]: 25 to 50 µM | IC50 [2, 4]: 25 to 50 µM

COc1ccccc1C=C(SCc1ccc(Cl)cc1)C(=O)c1ccc([N+](=O)[O-])cc1 [Example 200]
IC50 [1, 3]: 10 to 25 µM | IC50 [2, 3]: 1 to 10 µM

CC1=CC(=O)C(C)=C(C(C)(C)CC(=O)Oc2ccc(C(=O)/C(=C\c3ccc(F)c([N+](=O)[O-])c3)SCc3ccc(F)cc3)cc2)C1=O [Example 339]
IC50 [1, 3]: 1 to 10 µM | IC50 [2, 3]: 1 to 10 µM

O=C(C(=Cc1cc(Br)c(O)c(Br)c1)SCc1ccc(Br)cc1)c1ccc(Br)cc1 [Example 147]
IC50 [1, 3]: 1 to 10 µM | IC50 [2, 3]: 10 to 25 µM

O=C(/C(=C\c1ccc(O)c([N+](=O)[O-])c1)SCc1ccc(Br)cc1)c1ccc([N+](=O)[O-])cc1 [Example 184]
IC50 [1, 3]: 10 to 25 µM | IC50 [2, 3]: 10 to 25 µM

CCN(CC)CCOc1ccc(C(=O)/C(=C\c2ccc(F)c([N+](=O)[O-])c2)SCc2ccc(F)cc2)cc1 [Example 338]
IC50 [1, 3]: 1 to 10 µM | IC50 [2, 3]: ≤ 1 µM
